SMILES strings stand for the structures. Like-named read-outs stand apart in the source and are kept apart here.

Holding throughout (assay): microbe, parasite or virus in culture
The test system of experiment [1] is SARS-CoV-2 (USA-WA1/2020 variant). In kind it is cell-based. Particulars: for EC50: Severe acute respiratory syndrome coronavirus 2, Vero C1008, 48 h, read-out: EC50: yield reduction assay for WA1/2020.
The test system is the same in experiment [2]. In kind it is cell-based. Particulars: Severe acute respiratory syndrome coronavirus 2, Vero C1008, 96 h; 4 days; read-out: EC50: viability restoration in infected cells for WA1/2020.
For experiment [3], the system named is SARS-CoV-2 variant B.1.351. In kind it is cell-based, SARS-CoV-2 B.1.351. Particulars: Severe acute respiratory syndrome coronavirus 2, Vero C1008, 168 h, read-out: EC50: viability restoration in infected cells for B.1.351.
The subject of experiment [4] is SARS-CoV-2 variant B.1.351. In kind it is cell-based, SARS-CoV-2 B.1.351.
The subject of experiment [5] is SARS-CoV-2 variant B.1.1.7. In kind it is cell-based, SARS-CoV-2 B.1.1.7. Conditions: Severe acute respiratory syndrome coronavirus 2, Vero C1008, 96 h; 4 days; read-out: EC50 for CPE scoring-based assay for B.1.1.7.
The test system of experiment [6] is SARS-CoV-2 variant B.1.351. In kind it is cell-based, SARS-CoV-2 B.1.351. Particulars: for EC50: Severe acute respiratory syndrome coronavirus 2, Vero C1008, 96 h, 4 days, read-out: EC50 for CPE scoring-based assay for B.1.351.
The subject of experiment [7] is SARS-CoV-2 variant B.1.1.7. In kind it is cell-based, SARS-CoV-2 B.1.1.7.
Experiment [8] relates to SARS-CoV-2 (USA-WA1/2020 variant). In kind it is cell-based.
Experiment [9] has as its system SARS-CoV-2 variant B.1.1.7. Conditions: for EC50: Severe acute respiratory syndrome coronavirus 2, Vero C1008, 168 h, read-out: EC50: viability restoration in infected cells for B.1.1.7.
Where [10] appears, read: Severe acute respiratory syndrome coronavirus 2, Vero C1008, 96 h, 4 days, read-out: EC50 for CPE scoring-based assay for WA1/2020.
The mark [11] stands for this setting: Severe acute respiratory syndrome coronavirus 2, Vero C1008, read-out: EC50s, range over cytopathic effect and yield reduction assays.

In the case of `Oc1ccc([C@@H]2c3c(O)cc(O)cc3[C@@H]3c4c(cc(O)cc4[C@H]2[C@@H]2c4cc(O)cc5c4[C@@H](c4cc(O)cc(O)c4[C@H]2c2ccc(O)cc2)[C@H](c2ccc(O)cc2)O5)O[C@H]3c2ccc(O)cc2)cc1` [Hopeaphenol, (–)-hopeaphenol], the “% infected, Average” value in [1] (1 μM) turned out to be 29.2%; in [1] (3 μM) it was 23.0%; in [1] (10 μM) it was 18.7%; in experiment [1] (30 μM), 11.5%; in experiment [1] (50 μM) it was 3.6%; in experiment [4] (3 μM) it was 20.6%. Moreover, the “% infected, Average” value in experiment [4] (10 μM) turned out to be 11.6%; in [4] (20 μM), 9.9%; in experiment [4] (50 μM), 0.1%; in experiment [7] (3 μM) it was 12.1%; in experiment [7] (10 μM) it was 10.4%; in experiment [7] (20 μM), 6.7%. For the same molecule, in experiment [7] (50 μM), the “% infected, Average” value was found to be 0.0%. Also, the EC50 in [1] is 13.5 µM; in experiment [2], 23.4 µM; in experiment [3] it was 7.5 µM; in experiment [4] (Severe acute respiratory syndrome coronavirus 2, Vero C1008, 48 h, read-out: EC50: yield reduction assay for B.1.351), 8.8 µM; in [5] it was 14.8 µM; in experiment [6] it was 2.3 µM. Moreover, the EC50 was 11.4 µM in experiment [7] (Severe acute respiratory syndrome coronavirus 2, Vero C1008, 48 h, read-out: EC50: yield reduction assay for B.1.1.7); 10.2 µM in [8] (setting [10]); 10.2 to 23.4 µM in [8] (setting [11]); 2.3 to 23.4 µM in [8] (Severe acute respiratory syndrome coronavirus 2, read-out: EC50s in infectious viral assays, range); 7.8 µM in [9]. In experiment [6], the “Fold improved activity against B.1.351 over USA-WA1/2020 (CPE EC50)” value turned out to be 4.5 fold.
For the molecule `Oc1ccc([C@@H]2c3c(O)cc(O)cc3[C@@H]3c4c(cc(O)c5c4[C@@H]2[C@H](c2ccc(O)cc2)[C@H]5c2cc(O)cc4c2[C@@H](c2cc(O)cc(O)c2)[C@H](c2ccc(O)cc2)O4)O[C@H]3c2ccc(O)cc2)cc1` [Vaticanol B, vaticanol B], the “% infected, Average” value in experiment [1] (10 μM) stood at 30.0%; in experiment [1] (30 μM) it was 26.8%; in [1] (50 μM), 16.9%. The EC50 in [1] is over 50 µM; in experiment [2] it was over 50 µM; in experiment [3] it was over 50 µM; in experiment [5], 32.4 µM; in experiment [6], 25.3 µM; in experiment [8] (setting [10]) it was 37 µM. In addition, the EC50 in experiment [9] was over 50 µM.
Take `Oc1ccc(/C=C/c2cc(O)cc(O)c2)cc1` [Resveratrol, resveratrol, reference compound]: the EC50 in experiment [2] was over 50 µM; in [8] (setting [10]), over 100 µM.
As to `CC(C)C[C@H](NC(=O)OCc1ccccc1)C(=O)N[C@@H](CC1CCNC1=O)C(O)S(=O)(=O)O` (stereo partly drawn) [GC-376, reference compound], the EC50 in [8] (4 days, read-out: EC50 for CPE scoring-based assay for WA1/2020) amounted to 3.9 µM.
As for `CCC(CC)COC(=O)[C@H](C)N[P@](=O)(OC[C@H]1O[C@@](C#N)(c2ccc3c(N)ncnn23)[C@H](O)[C@@H]1O)Oc1ccccc1` [Remdesivir, remdesivir, reference compound], the “% infected, Average” value in experiment [1] (0.3 μM) is given as 21.0%; in [1] (1 μM) it was 13.5%; in experiment [1] (3 μM), 8.5%; in experiment [1] (10 μM) it was 0.0%. Further, the EC50 is 1 µM in experiment [1]; 7.3 µM in experiment [2]; over 10 µM in [3]; 1.5 µM in [5]; 1.4 µM in experiment [6]; 2.5 µM in experiment [8] (setting [10]). In addition, the EC50 in experiment [8] (setting [11]) is 1 to 7.3 µM; in [9] it was over 10 µM.
Usually viability stands for a per cent measure of how many cells are alive, often set against a control. With `OC[C@H]1O[C@@H](Oc2cc3c4c(c2)[C@@H]([C@@H]2c5cc(O)cc6c5[C@@H](c5cc(O)cc(O)c5[C@H]2c2ccc(O)cc2)[C@H](c2ccc(O)cc2)O6)[C@H](c2ccc(O)cc2)c2c(O)cc(O)cc2[C@H]4[C@H](c2ccc(O)cc2)O3)[C@H](O)[C@@H](O)[C@@H]1O` [Vatalbinoside A, vatalbinoside A], the “% infected, Average” value was 17.1% in experiment [1] (1 μM); 17.8% in experiment [1] (3 μM); 16.7% in experiment [1] (10 μM); 9.9% in experiment [1] (30 μM); 11.2% in [1] (50 μM). Further, the EC50 in experiment [1] was 19.1 µM; in experiment [2] it was 18.8 µM; in experiment [3], 11.3 µM; in experiment [5], 4 µM; in [6], 3.6 µM; in experiment [8] (setting [10]), 13.8 µM. For the same molecule, the EC50 in [9] is over 50 µM. Further, in [9] (Severe acute respiratory syndrome coronavirus 2, read-out: Restored viability in B.1.1.7-infected cells), the viability at 20 µM was at most 51.2%.

For the origin of these results see article PMC8597786 (Antimicrobial Agents and Chemotherapy, 2021).
